Source: patent US10167311B2, “Boronic acid esters and pharmaceutical formulations thereof” (OHIO STATE INNOVATION FOUNDATION, priority 2014, dated 2019)
Where two headings read alike, the source gives them in different places.

Key:
[1] = cited from earlier work
[2] = Pharmacokinetics in plasma after i.v. administration (boron by ICP-OES); format: in vivo; settings: ICR mice, i.v. 1.0 mg/kg, two-compartment model, mean ± SD (n = 3)
Experimental: The Pharmacokinetics of L-BTZ was studied in ICR mice (Charles River Lab, Wilmington, Mass.). The PK profile of free BTZ was also determined. Mice were given intravenous injections of free BTZ or L-BTZ at 1.0 mg/kg body weight via tail vein. At selected time intervals, a minimum of 100 μL […] was collected from each mouse using heparin-containing tubes. Plasma was then isolated by centrifugation at 3000× g for 5 min. The drug concentration in plasma was determined by measuring Boron concentration through an inductively coupled plasma-optical emission spectrometer (ICP-OES). The Boron extraction and sample preparation has been described previously. The pharmacokinetic parameters of free BTZ and L-BTZ were calculated using WinNonlin software and a two-compartment model and are shown in Table 1.

[3] = Encapsulation (drug entrapment / loading) efficiency of liposomes, Sepharose CL-4B fractions, UV-vis OD 270 nm; format: physicochemical; settings: liposomal formulation; drug in liposome fractions / total drug fractions
Experimental: The liposome particle size distribution is determined through dynamic light scattering on a NICOMP Submicron Particle Sizer Model 370. The encapsulation efficiency was examined by a UV-visible spectrophotometer as the OD at 270 nm after 1:9 methanol extraction of fractions from the Sepharose CL-4B column (FIG. 1). A reference measurement was also taken of the OD at 450 nm without methanol extraction (FIG. 1). Then, the ratio of total amount of drug content in the liposome fractions to total drug fractions was calculated. In this example, a drug entrapment of 41% was obtained. The liposome particle size distribution was determined through dynamic light scattering on a NICOMP Submicron Particle Sizer Model 370. The encapsulation efficiency was examined by a UV-visible spectrophotometer as the OD at 270 nm after 1:9 methanol dissolution of fractions collected from the Sepharose column. A reference measurement was also taken of the OD at 450 nm without methanol dissolution. Then, the ratio of total amount of drug content in the liposome fractions to total drug fractions was calculated. […] The liposome particle size distribution was determined through dynamic light scattering on a NICOMP Submicron Particle Sizer Model 370. […] Then, the ratio of total amount of drug content in the liposome fractions to total drug fractions was calculated. […] Each fraction was analyzed by UV-vis spectrophotometry. […]

MV4-11 AML cells = assay: Survival of MV4-11 engrafted NSG mice; format: in vivo; settings: liposomal formulation, 1 mg/kg twice a week
Experimental: The therapeutic activity of BTZ-MEGA-CHOL was also investigated using animal studies. NSG mice were injected with 5×10^5 MV4-11 AML cells. The mice were divided into two groups of 10 each (Trial I), and were treated with empty liposomes or the liposomal formulation of BTZ-MEGA-CHOL at 1 mg/kg, twice a week, by tail vein injection. The study was repeated once with 5 mice in each group (Trial II). Three mice from each group were sacrificed after 4 weeks of treatment in Trial I for further analysis.
For Trial I, the p value was 0.0007 (FIG. 9). For Trial II the p value was 0.0019 (FIG. 10). When the data set was viewed as a combination, the p value was <0.0001 and median survival of the mice was 28 days for the empty liposome treated (control) group and 39 days for the BTZ-MEGA-CHOL treated group (FIG. 11).

Structure (SMILES) | maximum tolerated dose ([1]; intravenous bolus on days 1, 4, 8, and 11 of a 3-week cycle) [mg/m^2] | maximum tolerated dose ([1]; patients with solid tumors, intravenously once or twice weekly) [mg/m^2] | T1/2α [2] [min] | T1/2β [2] [h] | AUC ([2]; mouse, iv) [ng·h/mL] | clearance ([2]; mouse, iv) [mL/min/kg] | drug entrapment (encapsulation efficiency) [3] [%] | median survival (MV4-11 AML cells; tail vein, Trial I and II combined, p <0.0001 vs empty liposomes (28 days)) [days] | survival of mice (MV4-11 AML cells; Trial I p 0.0007, Trial II p 0.0019)
CC(C)C[C@H](NC(=O)[C@H](Cc1ccccc1)NC(=O)c1cnccn1)B(O)O [Free BTZ, Bortezomib] | 1.56 | 1.3 | 6 ± 1.2 | 18.26 ± 13.33 | 2870 ± 1340 | 5.8 |  |  | 
CC(C)CCC[C@@H](C)C1CCC2C3CC=C4C[C@@H](OC(=O)N(C)CC(O)[C@H]5OB([C@H](CC(C)C)NC(=O)[C@H](Cc6ccccc6)NC(=O)c6cnccn6)O[C@@H]5C(O)CO)CC[C@]4(C)C3CC[C@@]21C (stereo partly drawn) [BTZ-MEGA-CHOL] |  |  |  |  |  |  | 80.11 | 39 | significant increase in survival
